Like-named read-outs stand apart in the source and are kept apart here.
Legend:
TNFα = experiment: cells; format: cell-based, human; conditions: Homo sapiens, Monocyte, LPS-stimulated human monocytes, read-out: EC50 TNF
IRAK4 enzyme = IRAK4 enzyme (Homo sapiens (Human), UniProt Q9NWZ3); experiment: biochemical; format: biochemical; conditions: IRAK4 enzyme, 500 μM ATP
Sequence of IRAK4 enzyme (Q9NWZ3 whole entry): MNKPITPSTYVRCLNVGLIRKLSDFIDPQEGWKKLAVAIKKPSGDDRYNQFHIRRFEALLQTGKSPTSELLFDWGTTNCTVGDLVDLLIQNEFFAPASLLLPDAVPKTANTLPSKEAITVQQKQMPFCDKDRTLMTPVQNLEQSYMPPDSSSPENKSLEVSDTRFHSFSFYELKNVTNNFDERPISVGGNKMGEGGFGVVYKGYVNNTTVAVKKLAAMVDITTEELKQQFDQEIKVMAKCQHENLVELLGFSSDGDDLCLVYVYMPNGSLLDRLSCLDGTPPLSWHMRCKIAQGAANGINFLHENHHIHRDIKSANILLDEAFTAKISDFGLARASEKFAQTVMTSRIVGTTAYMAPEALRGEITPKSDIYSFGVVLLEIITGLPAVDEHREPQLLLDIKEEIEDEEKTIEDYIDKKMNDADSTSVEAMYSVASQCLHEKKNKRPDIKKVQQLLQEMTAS

Compound	EC50 (TNFα; TNFα by TR-FRET)	IC50 (IRAK4 enzyme; TR-FRET)	EC50 (TNFα; TNFα content)	IC50 (IRAK4 enzyme; TR-FRET (HTRF))
CC1(C(=O)NC[C@H]2C[C@H](Nc3cc(-c4ccc5cc(C#N)cnn45)ncc3C(=O)NC[C@@H](F)C(C)(C)O)C2)CC1 [Example 827, 6-(3-cyanopyrrolo[1,2-b]pyridazin-7-yl)-N-((R)-2-fluoro-3-hydroxy-3-methylbutyl)-4-(((1r,3R)-3-((1-methylcyclopropane-1-carboxamido)methyl)cyclo-butyl)amino)nicotinamide]	15 nM	< 1 nM	–	–
CC(C)(O)[C@H](F)CNC(=O)c1cnc(-c2ccc3cc(C#N)cnn23)cc1N[C@H]1C[C@H](Cn2ccnc2)C1 [Example 783, 4-(((1r,3R)-3-((1H-imidazol-1-yl)methyl)cyclo-butyl)amino)-6-(3-cyanopyrrolo[1,2-b]pyridazin-7-yl)-N-((R)-2-fluoro-3-hydroxy-3-methylbutyl)nicotinamide]	–	–	22 nM	< 1 nM
CC(=O)N[C@H]1CC[C@@H](Nc2cc(-c3ccc4cc(C#N)cnn34)ncc2C(=O)NC[C@@H](F)C(C)(C)O)C1 [Example 307, 4-(((1R,3S)-3-acetamidocyclopentyl)amino)-6-(3-cyano-pyrrolo[1,2-b]pyridazin-7-yl)-N-((R)-2-fluoro-3-hydroxy-3-methylbutyl) nicotinamide]	–	2 nM	320 nM	–
Cc1ncc(-c2ccc(Nc3cc(-c4ccc5cc(C#N)cnn45)ncc3C(=O)NC[C@@H](F)C(C)(C)O)cc2)o1 [Example 207, (R)-6-(3-cyanopyrrolo[1,2-b]pyridazin-7-yl)-N-(2-fluoro-3-hydroxy-3-methylbutyl)-4-((4-(2-methyloxazol-5-yl)phenyl)amino) nicotinamide]	–	1 nM	96 nM	–
CN(C)C(=O)[C@H](F)CNC(=O)c1cnc(-c2ccc3cc(C#N)cnn23)cc1NC12CCC(O)(CC1)CC2 [Example 946, (R)-6-(3-cyanopyrrolo[1,2-b]pyridazin-7-yl)-N-(3-(dimethylamino)-2-fluoro-3-oxopropyl)-4-((4-hydroxybicyclo[2.2.2]octan-1-yl)amino) nicotinamide]	120 nM	1 nM	–	–
CC(C)(O)[C@H](F)CNC(=O)c1cnc(-c2ccc3cc(C#N)cnn23)cc1NC1C2CNCC1C2 (single isomer, unassigned) [Example 25]	–	2 nM	116 nM	–
CC(C)Nc1cc(-c2ccc3cc(C#N)cnn23)ncc1C(=O)NCC(=O)C(C)(C)O [Example 332, 6-(3-cyanopyrrolo[1,2-b]pyridazin-7-yl)-N-(3-hydroxy-3-methyl-2-oxobutyl)-4-(isopropyl-amino)nicotinamide]	–	< 1 nM	43 nM	–
CC(C)(O)[C@H](F)CNC(=O)c1cnc(-c2ccc3cc(C#N)cnn23)cc1Nc1ccccc1C(N)=O [Example 382, (R)-4-((2-carbamoyl-phenyl)amino)-6-(3-cyanopyrrolo[1,2-b]pyridazin-7-yl)-N-(2-fluoro-3-hydroxy-3-methylbutyl)nicotinamide]	–	10 nM	586 nM	–
COC(=O)NCCC(C)(C)Nc1cc(-c2ccc3cc(C#N)cnn23)ncc1C(=O)NC[C@@H](F)C(C)(C)O [Example 721, (R)-methyl (3-((2-(3-cyano-pyrrolo[1,2-b]pyridazin-7-yl)-5-((2-fluoro-3-hydroxy-3-methylbutyl)carbamoyl)pyridin-4-yl)amino)-3-methylbutyl)carbamate]	–	–	87 nM	1 nM
CC(C)Nc1cc(-c2ccc3cc(C(N)=O)cnn23)ncc1C(=O)NC1CS(=O)(=O)C1 [Example 78, 7-(5-((1,1-dioxidothietan-3-yl)carbamoyl)-4-(isopropyl-amino)pyridin-2-yl)pyrrolo[1,2-b] pyridazine-3-carboxamide]	–	27 nM	1620 nM	–
CC(C)(O)[C@H](F)CNC(=O)c1cnc(-c2ccc3cc(C#N)cnn23)cc1Nc1ccc(N2CC3CC(C2)O3)nc1 [Example 922, 4-((6-(6-oxa-3-azabicyclo[3.1.1]heptan-3-yl)pyridin-3-yl)amino)-6-(3-cyanopyrrolo[1,2-b]pyridazin-7-yl)-N-((R)-2-fluoro-3-hydroxy-3-methylbutyl)nicotinamide]	42 nM	< 1 nM	–	–
NC(=O)c1cnn2c(-c3cc(NC45CCC(O)(CC4)CC5)c(C(=O)NCC(F)(F)C(=O)N4CC(F)(F)C4)cn3)ccc2c1 [Example 963, 7-(5-((3-(3,3-difluoro-azetidin-1-yl)-2,2-difluoro-3-oxopropyl)carbamoyl)-4-((4-hydroxybicyclo[2.2.2]octan-1-yl)amino)pyridin-2-yl)pyrrolo[1,2-b]pyridazine-3-carboxamide]	> 10000 nM	394 nM	–	–
C[C@@H]1CN(c2ncc(Nc3cc(-c4ccc5cc(C#N)cnn45)ncc3C(=O)NC[C@@H](F)C(C)(C)O)cn2)C[C@H](C)O1 [Example 686, 6-(3-cyanopyrrolo[1,2-b]pyridazin-7-yl)-4-((2-((2S,6R)-2,6-dimethyl-morpholino)pyrimidin-5-yl)amino)-N-((R)-2-fluoro-3-hydroxy-3-methylbutyl) nicotinamide]	–	–	20 nM	< 1 nM
CC(C)(O)[C@H](F)CNC(=O)c1cnc(-c2ccc3cc(C#N)cnn23)cc1N[C@H]1C[C@H](CNC(=O)C2CC2(F)F)C1 (stereo partly drawn) [Example 695, 6-(3-cyanopyrrolo[1,2-b]pyridazin-7-yl)-4-(((1R,3R)-3-(((R)-2,2-difluorocyclopropane-1-carboxamido)methyl)cyclobutyl)amino)-N-((R)-2-fluoro-3-hydroxy-3-methylbutyl)nicotinamide]	–	–	15 nM	< 1 nM
CC(C)(O)[C@H](F)CNC(=O)c1cnc(-c2ccc3cc(C#N)cnn23)cc1NC[C@@H]1COCCN1 [Example 917, 6-(3-cyanopyrrolo[1,2-b]pyridazin-7-yl)-N-((R)-2-fluoro-3-hydroxy-3-methylbutyl)-4-((((R)-morpholin-3-yl)methyl)amino)nicotinamide]	72 nM	1 nM	–	–
CNC(=O)C12CCC(Nc3cc(-c4ccc5cc(C#N)cnn45)ncc3C(=O)NCC#N)(CC1)CC2 [Example 475, N-(cyanomethyl)-6-(3-cyanopyrrolo[1,2-b]pyridazin-7-yl)-4-((4-(methylcarbamoyl)bicyclo[2.2.2]octan-1-yl)amino)nicotinamide]	–	–	16 nM	< 1 nM
COC(=O)NC1CCN(c2ccc(Nc3cc(-c4ccc5cc(C#N)cnn45)ncc3C(=O)NC[C@@H](F)C(C)(C)O)cn2)CC1 [Example 881, (R)-methyl (1-(5-((2-(3-cyanopyrrolo[1,2-b]pyridazin-7-yl)-5-((2-fluoro-3-hydroxy-3-methylbutyl)carbamoyl)pyridin-4-yl)amino)pyridin-2-yl)piperidin-4-yl)carbamate]	84 nM	< 1 nM	–	–
CC(C)(O)[C@H](F)CNC(=O)c1cnc(-c2ccc3cc(C#N)cnn23)cc1NC1CCCC(S(C)(=O)=O)C1 (single isomer, unassigned) [Example 515]	–	–	526 nM	5 nM
COCCCNc1cc(-c2ccc3cc(C#N)cnn23)ncc1C(=O)NC[C@@H](F)C(C)(C)O [Example 133, (R)-6-(3-cyanopyrrolo[1,2-b]pyridazin-7-yl)-N-(2-fluoro-3-hydroxy-3-methylbutyl)-4-((3-methoxypropyl)amino) nicotinamide]	–	1 nM	91 nM	–
COC(=O)NC12CCC(Nc3cc(-c4ccc5cc(C#N)cnn45)ncc3C(=O)NCC#N)(CC1)CC2 [Example 267, methyl (4-((5-((cyanomethyl)carbamoyl)-2-(3-cyanopyrrolo[1,2-b]pyridazin-7-yl)pyridin-4-yl)amino)bicyclo[2.2.2]octan-1-yl)carbamate]	–	< 1 nM	19 nM	–
COC(=O)N1CCC2(CC(Nc3cc(-c4ccc5cc(C#N)cnn45)ncc3C(=O)NC[C@@H](F)C(C)(C)O)C2)C1 (stereo partly drawn) [Example 903, (R)-methyl 2-((2-(3-cyano-pyrrolo[1,2-b]pyridazin-7-yl)-5-((2-fluoro-3-hydroxy-3-methylbutyl)carbamoyl)pyridin-4-yl)amino)-6-azaspiro[3.4]octane-6-carboxylate]	79 nM	1 nM	–	–
CC(C)(O)[C@H](F)CNC(=O)c1cnc(-c2ccc3cc(C#N)cnn23)cc1N[C@H]1C[C@H](CNC(=O)OCC(F)F)C1 [Example 728, 2,2-difluoroethyl (((1R,3r)-3-((2-(3-cyanopyrrolo[1,2-b]pyridazin-7-yl)-5-(((R)-2-fluoro-3-hydroxy-3-methylbutyl)carbamoyl)pyridin-4-yl)amino)cyclo-butyl)methyl)carbamate]	–	–	4 nM	< 1 nM
CC(C)(O)[C@H](F)CNC(=O)c1cnc(-c2ccc3cc(C#N)cnn23)cc1NCc1cccnc1 [Example 170, (R)-6-(3-cyanopyrrolo[1,2-b]pyridazin-7-yl)-N-(2-fluoro-3-hydroxy-3-methylbutyl)-4-((pyridin-3-ylmethyl)amino) nicotinamide]	–	3 nM	217 nM	–
CC(C)(CCNC(=O)c1cnc(-c2ccc3cc(C#N)cnn23)cc1NC12CCC(O)(CC1)CC2)NC(=O)OC(C)(C)C [Example 347, tert-butyl (4-(6-(3-cyanopyrrolo[1,2-b]pyridazin-7-yl)-4-((4-hydroxybicyclo[2.2.2]octan-1-yl)amino)nicotinamido)-2-methyl-butan-2-yl)carbamate]	–	2 nM	45 nM	–
CC(C)Nc1cc(-c2ccc3cc(C#N)cnn23)ncc1C(=O)NCC(F)(F)C(C)(C)O [Example 116, 6-(3-cyanopyrrolo[1,2-b]pyridazin-7-yl)-N-(2,2-difluoro-3-hydroxy-3-methylbutyl)-4-(isopropylamino) nicotinamide]	–	< 1 nM	98 nM	–

— patent publication US10336762B2 (priority 2017, dated 2019)
